Assay results as given in paper PMC5218480 (PLoS ONE, 2017).

Test system: MV-4-11 cells
Assay: Gene expression microarray analysis (Affymetrix PrimeView) and GSEA
Format: cell-based, human
Parameters: RFU PODN (11730768_x_at) / Fold change /veh PODN (11730768_x_at) / RFU LINC00158 (11744669_a_at) / Fold change /veh LINC00158 (11744669_a_at) / RFU DUSP10 (11751237_a_at) / Fold change /veh DUSP10 (11751237_a_at) / RFU ID3 (11757404_x_at) / Fold change /veh ID3 (11757404_x_at) / RFU PLEKHG5 (11737974_s_at) / Fold change /veh PLEKHG5 (11737974_s_at) / RFU LRRC4B (11730491_at) / Fold change /veh LRRC4B (11730491_at) / RFU GIMAP4 (11747438_a_at) / Fold change /veh GIMAP4 (11747438_a_at) / RFU KRT8 (11758183_x_at) / Fold change /veh KRT8 (11758183_x_at) / RFU CNN1 (11734310_a_at) / Fold change /veh CNN1 (11734310_a_at) / RFU VPS37D (11726825_at) / Fold change /veh VPS37D (11726825_at) / RFU C10orf10 (11716522_x_at) / Fold change /veh C10orf10 (11716522_x_at) / RFU KIR2DL2 /// KIR2DL4 /// KIR2DL5A /// KIR2DL5B /// KIR2DS1 /// KIR2DS2 /// KIR2DS3 /// KIR2DS4 /// KIR3DL3 /// KIR3DL3 /// KIR3DS1 (11738374_at) / Fold change /veh KIR2DL2 /// KIR2DL4 /// KIR2DL5A /// KIR2DL5B /// KIR2DS1 /// KIR2DS2 /// KIR2DS3 /// KIR2DS4 /// KIR3DL3 /// KIR3DL3 /// KIR3DS1 (11738374_at) / RFU C1QL1 (11718748_at) / Fold change /veh C1QL1 (11718748_at) / RFU TMPRSS4 (11747572_a_at) / Fold change /veh TMPRSS4 (11747572_a_at) / RFU HAMP (11756126_x_at) / Fold change /veh HAMP (11756126_x_at) / RFU RNFT2 (11725882_a_at) / Fold change /veh RNFT2 (11725882_a_at) / RFU NR4A2 (11747474_a_at) / Fold change /veh NR4A2 (11747474_a_at) / RFU ABCC12 (11746883_a_at) / Fold change /veh ABCC12 (11746883_a_at) / RFU TMEM136 (11760407_x_at) / Fold change /veh TMEM136 (11760407_x_at) / RFU CLDN22 /// WWC2 (11732394_at) / Fold change /veh CLDN22 /// WWC2 (11732394_at) / RFU HLA-DPB1 (11760878_x_at) / Fold change /veh HLA-DPB1 (11760878_x_at) / RFU SPINT1 (11716480_a_at) / Fold change /veh SPINT1 (11716480_a_at) / RFU GAP43 (11754022_s_at) / Fold change /veh GAP43 (11754022_s_at) / RFU A4GNT (11735810_at) / Fold change /veh A4GNT (11735810_at) / RFU PRB3 (11715151_x_at) / Fold change /veh PRB3 (11715151_x_at) / RFU TUBB4B (11761932_at) / Fold change /veh TUBB4B (11761932_at) / RFU CAPN14 (11732068_a_at) / Fold change /veh CAPN14 (11732068_a_at) / RFU TMCC2 (11721928_a_at) / Fold change /veh TMCC2 (11721928_a_at) / RFU IRGQ (11745062_a_at) / Fold change /veh IRGQ (11745062_a_at) / RFU FAM174B (11720279_a_at) / Fold change /veh FAM174B (11720279_a_at) / RFU TMPRSS4 (11748680_a_at) / Fold change /veh TMPRSS4 (11748680_a_at) / RFU FAM212B (11763350_a_at) / Fold change /veh FAM212B (11763350_a_at) / RFU PLEKHG5 (11743358_a_at) / Fold change /veh PLEKHG5 (11743358_a_at) / RFU ZSCAN30 (11745921_a_at) / Fold change /veh ZSCAN30 (11745921_a_at) / RFU CMKLR1 (11741424_a_at) / Fold change /veh CMKLR1 (11741424_a_at) / RFU LOC101060620 /// MAPK8IP1 (11723275_at) / Fold change /veh LOC101060620 /// MAPK8IP1 (11723275_at) / RFU SPTSSB (11747773_x_at) / Fold change /veh SPTSSB (11747773_x_at) / RFU PRSS12 (11739890_at) / Fold change /veh PRSS12 (11739890_at) / RFU BIN1 (11741810_x_at) / Fold change /veh BIN1 (11741810_x_at) / RFU WNT11 (11732464_a_at) / Fold change /veh WNT11 (11732464_a_at) / RFU C10orf10 (11716521_a_at) / Fold change /veh C10orf10 (11716521_a_at) / RFU C5orf56 (11738089_at) / Fold change /veh C5orf56 (11738089_at) / RFU CYB561 (11721691_x_at) / Fold change /veh CYB561 (11721691_x_at) / RFU ANKRD19P (11752326_a_at) / Fold change /veh ANKRD19P (11752326_a_at) / RFU OR2T12 /// OR2T33 /// OR2T8 (11738714_s_at) / Fold change /veh OR2T12 /// OR2T33 /// OR2T8 (11738714_s_at) / RFU VCAN (11748164_a_at) / Fold change /veh VCAN (11748164_a_at) / RFU JSRP1 (11732532_at) / Fold change /veh JSRP1 (11732532_at) / RFU KRTAP10-11 (11738290_x_at) / Fold change /veh KRTAP10-11 (11738290_x_at) / RFU MYO3A (11730013_a_at) / Fold change /veh MYO3A (11730013_a_at) / RFU EBF3 (11725865_a_at) / Fold change /veh EBF3 (11725865_a_at) / RFU CAMK2N1 (11719241_x_at) / Fold change /veh CAMK2N1 (11719241_x_at) / RFU C5orf56 (11738088_a_at) / Fold change /veh C5orf56 (11738088_a_at) / RFU OLFML3 (11715873_a_at) / Fold change /veh OLFML3 (11715873_a_at) / RFU LOC100653217 /// NTM (11731650_a_at) / Fold change /veh LOC100653217 /// NTM (11731650_a_at) / RFU MAPK11 (11762145_a_at) / Fold change /veh MAPK11 (11762145_a_at) / RFU FIZ1 (11724087_x_at) / Fold change /veh FIZ1 (11724087_x_at) / RFU OASL (11726364_x_at) / Fold change /veh OASL (11726364_x_at) / RFU SOX15 (11748057_x_at) / Fold change /veh SOX15 (11748057_x_at) / RFU CD79A (11719716_a_at) / Fold change /veh CD79A (11719716_a_at) / RFU HIST1H1D (11736915_at) / Fold change /veh HIST1H1D (11736915_at) / RFU CASKIN2 (11723855_a_at) / Fold change /veh CASKIN2 (11723855_a_at) / RFU LOC730098 (11760151_x_at) / Fold change /veh LOC730098 (11760151_x_at) / RFU OR4N2 (11742367_at) / Fold change /veh OR4N2 (11742367_at) / RFU PRRT2 (11749266_a_at) / Fold change /veh PRRT2 (11749266_a_at) / RFU SNX32 (11753110_a_at) / Fold change /veh SNX32 (11753110_a_at) / RFU CDHR5 (11726645_a_at) / Fold change /veh CDHR5 (11726645_a_at) / RFU RCAN1 (11760418_a_at) / Fold change /veh RCAN1 (11760418_a_at) / RFU FAM167A (11723789_a_at) / Fold change /veh FAM167A (11723789_a_at) / RFU FAM26E (11764081_at) / Fold change /veh FAM26E (11764081_at) / RFU ISYNA1 (11749810_s_at) / Fold change /veh ISYNA1 (11749810_s_at) / RFU ACY1 (11761880_at) / Fold change /veh ACY1 (11761880_at) / RFU 11764098_at / Fold change /veh 11764098_at / RFU SAMD14 (11745864_x_at) / Fold change /veh SAMD14 (11745864_x_at) / RFU NPB (11741838_a_at) / Fold change /veh NPB (11741838_a_at) / RFU TMPRSS6 (11731388_a_at) / Fold change /veh TMPRSS6 (11731388_a_at) / RFU KRTAP10-2 (11738614_at) / Fold change /veh KRTAP10-2 (11738614_at) / RFU ARHGAP8 /// PRR5-ARHGAP8 (11727945_x_at) / Fold change /veh ARHGAP8 /// PRR5-ARHGAP8 (11727945_x_at) / RFU KRTAP5-7 /// NADSYN1 (11734609_at) / Fold change /veh KRTAP5-7 /// NADSYN1 (11734609_at) / RFU RASL12 (11751679_a_at) / Fold change /veh RASL12 (11751679_a_at) / RFU CDKN2B (11736163_a_at) / Fold change /veh CDKN2B (11736163_a_at) / RFU PRF1 (11729649_at) / Fold change /veh PRF1 (11729649_at) / RFU, ZNF638 /// ZNF638-IT1 / Fold change vs veh, ZNF638 /// ZNF638-IT1 / RFU, PANK3 / Fold change vs veh, PANK3 / RFU, SH3YL1 / Fold change vs veh, SH3YL1 / RFU, ZEB2 / Fold change vs veh, ZEB2 / RFU, NRIP1 / Fold change vs veh, NRIP1 / RFU, PTTG1IP / Fold change vs veh, PTTG1IP / RFU, CAPN2 / Fold change vs veh, CAPN2 / RFU, MED14 / Fold change vs veh, MED14 / RFU, SNORA58 / Fold change vs veh, SNORA58 / RFU, C1orf63 / Fold change vs veh, C1orf63 / RFU, LRRFIP1 / Fold change vs veh, LRRFIP1 / RFU, NDUFAF7 / Fold change vs veh, NDUFAF7 / RFU, SLC12A2 / Fold change vs veh, SLC12A2 / RFU, IBTK / Fold change vs veh, IBTK / RFU, ESF1 / Fold change vs veh, ESF1 / Fold change vs veh, TMEM50B / RFU, TAOK1 / Fold change vs veh, TAOK1 / RFU, ACBD3 / Fold change vs veh, ACBD3 / RFU, TMA16 / Fold change vs veh, TMA16 / RFU, RWDD3 / Fold change vs veh, RWDD3 / RFU, BCAT1 / Fold change vs veh, BCAT1 / RFU, EDEM3 / Fold change vs veh, EDEM3 / RFU, TMEM33 / Fold change vs veh, TMEM33 / RFU, WDR75 / Fold change vs veh, WDR75 / RFU, AHCTF1 / Fold change vs veh, AHCTF1 / RFU, TFRC / Fold change vs veh, TFRC / RFU, ZDHHC17 / Fold change vs veh, ZDHHC17 / RFU, NOM1 / Fold change vs veh, NOM1 / RFU, ARL8B / Fold change vs veh, ARL8B / RFU, ZBTB11 / Fold change vs veh, ZBTB11 / RFU, TAMM41 / Fold change vs veh, TAMM41 / RFU, KIAA1704 /// LOC100996395 / Fold change vs veh, KIAA1704 /// LOC100996395 / RFU, ING1 / Fold change vs veh, ING1 / RFU, TRMT61B / Fold change vs veh, TRMT61B / RFU, FUBP3 / Fold change vs veh, FUBP3 / RFU, TP53 / Fold change vs veh, TP53 / RFU, TNKS2 / Fold change vs veh, TNKS2 / RFU, ZFP14 / Fold change vs veh, ZFP14 / RFU, ACTR2 / Fold change vs veh, ACTR2 / RFU, PPP3R1 / Fold change vs veh, PPP3R1 / RFU, PIK3R1 / Fold change vs veh, PIK3R1 / RFU, HNRNPA1 / Fold change vs veh, HNRNPA1 / RFU, RNF170 / Fold change vs veh, RNF170 / RFU, ZNF28 / Fold change vs veh, ZNF28 / RFU, RNGTT / Fold change vs veh, RNGTT / RFU, OGT / Fold change vs veh, OGT / RFU, BRD1 / Fold change vs veh, BRD1 / RFU, MARS / Fold change vs veh, MARS / RFU, ZNF655 / Fold change vs veh, ZNF655 / RFU, FAHD1 / Fold change vs veh, FAHD1 / RFU, BDP1 / Fold change vs veh, BDP1 / RFU, LRRCC1 / Fold change vs veh, LRRCC1 / RFU, ARID1A / Fold change vs veh, ARID1A / RFU, ZNF146 / Fold change vs veh, ZNF146 / RFU, ZNF330 / Fold change vs veh, ZNF330 / RFU, GPN3 / Fold change vs veh, GPN3 / RFU, C9orf123 / Fold change vs veh, C9orf123 / RFU, N4BP2L2 / Fold change vs veh, N4BP2L2 / RFU, ARFIP1 / Fold change vs veh, ARFIP1 / RFU, FAM179B / Fold change vs veh, FAM179B / RFU, BCL10 / Fold change vs veh, BCL10 / RFU, UHRF1BP1L / Fold change vs veh, UHRF1BP1L / RFU, BET1 / Fold change vs veh, BET1 / RFU, CNOT2 / Fold change vs veh, CNOT2 / RFU, ZNF268 / Fold change vs veh, ZNF268 / Fold change vs veh, ZNF507 / RFU, DGCR2 / Fold change vs veh, DGCR2 / RFU, WDSUB1 / Fold change vs veh, WDSUB1 / Fold change vs veh, HSP90B1 /// MIR3652 / RFU, ADSS / Fold change vs veh, ADSS / RFU, GK / Fold change vs veh, GK / RFU, ZNF148 / Fold change vs veh, ZNF148 / RFU, TAF9 / Fold change vs veh, TAF9 / RFU, SLC1A5 / Fold change vs veh, SLC1A5 / RFU, SLMO2 / Fold change vs veh, SLMO2 / RFU, ABCC4 / Fold change vs veh, ABCC4 / RFU, LOC101060439 /// RAP1B / Fold change vs veh, LOC101060439 /// RAP1B / RFU, RFX7 / Fold change vs veh, RFX7 / RFU, GTPBP10 / Fold change vs veh, GTPBP10 / RFU, CNEP1R1 / Fold change vs veh, CNEP1R1 / RFU, BIVM-ERCC5 /// ERCC5 / Fold change vs veh, BIVM-ERCC5 /// ERCC5 / RFU, ILF3 / Fold change vs veh, ILF3 / RFU 11762660_at / Fold change /veh 11762660_at / RFU VCAN (11757783_s_at) / Fold change /veh VCAN (11757783_s_at) / RFU DDX43 (11728927_at) / Fold change /veh DDX43 (11728927_at) / RFU KRT8 (11758188_x_at) / Fold change /veh KRT8 (11758188_x_at) / RFU NKD1 (11759106_at) / Fold change /veh NKD1 (11759106_at) / RFU SRD5A1 (11742802_a_at) / Fold change /veh SRD5A1 (11742802_a_at) / RFU TPSAB1 /// TPSB2 (11721975_s_at) / Fold change /veh TPSAB1 /// TPSB2 (11721975_s_at) / RFU GSTM3 (11746129_a_at) / Fold change /veh GSTM3 (11746129_a_at) / RFU IL23R (11737362_x_at) / Fold change /veh IL23R (11737362_x_at) / RFU TMEM51 (11727254_a_at) / Fold change /veh TMEM51 (11727254_a_at) / RFU PIWIL2 (11732686_x_at) / Fold change /veh PIWIL2 (11732686_x_at) / RFU ORM1 (11744905_x_at) / Fold change /veh ORM1 (11744905_x_at) / RFU CCDC152 (11743942_at) / Fold change /veh CCDC152 (11743942_at) / RFU ECM1 (11717891_a_at) / Fold change /veh ECM1 (11717891_a_at) / RFU IL23R (11748794_a_at) / Fold change /veh IL23R (11748794_a_at) / RFU TNFAIP8L3 (11732012_x_at) / Fold change /veh TNFAIP8L3 (11732012_x_at) / RFU MBOAT4 (11741988_at) / Fold change /veh MBOAT4 (11741988_at) / RFU 11764193_at / Fold change /veh 11764193_at / RFU TMEM53 (11763286_at) / Fold change /veh TMEM53 (11763286_at) / RFU MAGEB2 (11727129_at) / Fold change /veh MAGEB2 (11727129_at) / RFU TMEM200A (11744735_a_at) / Fold change /veh TMEM200A (11744735_a_at) / RFU CCDC152 (11751479_a_at) / Fold change /veh CCDC152 (11751479_a_at) / RFU FAM211A (11726209_a_at) / Fold change /veh FAM211A (11726209_a_at) / RFU RGS16 (11746705_a_at) / Fold change /veh RGS16 (11746705_a_at) / RFU VCAN (11755009_s_at) / Fold change /veh VCAN (11755009_s_at) / RFU RHOB (11743442_s_at) / Fold change /veh RHOB (11743442_s_at) / RFU RGS16 (11720943_a_at) / Fold change /veh RGS16 (11720943_a_at) / RFU RGS16 (11720944_at) / Fold change /veh RGS16 (11720944_at) / RFU, VPS4B / Fold change vs veh, VPS4B / RFU, CREB1 / Fold change vs veh, CREB1 / RFU, DNAJC13 / Fold change vs veh, DNAJC13 / RFU, GNAQ / Fold change vs veh, GNAQ / RFU, CDK5R1 / Fold change vs veh, CDK5R1 / RFU, ZRANB3 / Fold change vs veh, ZRANB3 / RFU, CUL4A / Fold change vs veh, CUL4A / RFU, CCNY / Fold change vs veh, CCNY / RFU, UFL1 / Fold change vs veh, UFL1 / RFU, COG3 / Fold change vs veh, COG3 / RFU, DIAPH2 / Fold change vs veh, DIAPH2 / RFU, SKA2 / Fold change vs veh, SKA2 / RFU, AFF3 / Fold change vs veh, AFF3 / RFU, LMF1 / Fold change vs veh, LMF1 / RFU, IPO11 / Fold change vs veh, IPO11 / RFU, DFFB / Fold change vs veh, DFFB / RFU, FOXP1 / Fold change vs veh, FOXP1 / RFU, CARD8 / Fold change vs veh, CARD8 / RFU, STRN3 / Fold change vs veh, STRN3 / RFU, ADK / Fold change vs veh, ADK / RFU, RASSF2 / Fold change vs veh, RASSF2 / RFU, WIPF1 / Fold change vs veh, WIPF1 / RFU, LARP1B / Fold change vs veh, LARP1B / RFU, RASA1 / Fold change vs veh, RASA1 / RFU, RB1 / Fold change vs veh, RB1 / RFU, PPFIA1 / Fold change vs veh, PPFIA1 / RFU, MAT2A / Fold change vs veh, MAT2A / RFU, CCT5 / Fold change vs veh, CCT5 / RFU, WDR92 / Fold change vs veh, WDR92 / RFU, CUX1 / Fold change vs veh, CUX1 / RFU, TTC7A / Fold change vs veh, TTC7A / RFU, TMEM135 / Fold change vs veh, TMEM135 / RFU, DEPTOR / Fold change vs veh, DEPTOR / RFU, CPM / Fold change vs veh, CPM / RFU, DNAJB6 / Fold change vs veh, DNAJB6 / RFU, CACNA2D3 / Fold change vs veh, CACNA2D3 / RFU, DTX4 / Fold change vs veh, DTX4 / RFU, TFCP2 / Fold change vs veh, TFCP2 / RFU, GMCL1 /// GMCL1P1 / Fold change vs veh, GMCL1 /// GMCL1P1 / RFU, AEBP2 / Fold change vs veh, AEBP2 / RFU, SNHG1 /// SNORD22 /// SNORD25 /// SNORD26 /// SNORD27 /// SNORD28 /// SNORD29 /// SNORD31 / Fold change vs veh, SNHG1 /// SNORD22 /// SNORD25 /// SNORD26 /// SNORD27 /// SNORD28 /// SNORD29 /// SNORD31 / Fold change (Aza/veh), C12orf56 (ProbeSet 11735607_a_at) / Fold change (ACY-1035/veh), C12orf56 (ProbeSet 11735607_a_at) / Fold change (Aza/veh), FGFR1OP (ProbeSet 11751329_s_at) / Fold change (ACY-1035/veh), FGFR1OP (ProbeSet 11751329_s_at) / Fold change (Aza/veh), VPS36 (ProbeSet 11739960_a_at) / Fold change (ACY-1035/veh), VPS36 (ProbeSet 11739960_a_at) / RFU SYPL1 (11715823_x_at) / Fold change /veh SYPL1 (11715823_x_at) / RFU IGFBP7 (11715501_s_at) / Fold change /veh IGFBP7 (11715501_s_at) / RFU REEP3 (11722064_at) / Fold change /veh REEP3 (11722064_at) / RFU IGLL1 (11728026_x_at) / Fold change /veh IGLL1 (11728026_x_at): dose or concentration left out as unconfirmed
Settings: MV-4-11 cells, 48 hours

With `Nc1ccc(-c2cccs2)cc1NC(=O)c1ccc2c(c1)cc(C1CC1)n2CCN1CCOCC1` [ACY-1035] the “RFU 11764098_at” value was 18.10 RFU.
